In patent EP2678315B1, “(Pyridin-4-yl)benzylamides as allosteric modulators of alpha 7 nAChR” (Janssen Pharmaceutica, N.V., priority 2011, dated 2012):
Where two headings read alike, the source gives them in different places.

Legend:
human alpha 7-wt nAChR [1] = biological target: T1, human alpha 7-wt nAChR (Homo sapiens, UniProt P36544); assay: Ca2+ flux imaging (FDSS) (protocol B); format: cell-based; conditions: for EC50: read-out: pEC50 (converted); for Emax: read-out: % Efficacy
T1 construct: expressed in transfected cells
T1 sequence (P36544 23-502): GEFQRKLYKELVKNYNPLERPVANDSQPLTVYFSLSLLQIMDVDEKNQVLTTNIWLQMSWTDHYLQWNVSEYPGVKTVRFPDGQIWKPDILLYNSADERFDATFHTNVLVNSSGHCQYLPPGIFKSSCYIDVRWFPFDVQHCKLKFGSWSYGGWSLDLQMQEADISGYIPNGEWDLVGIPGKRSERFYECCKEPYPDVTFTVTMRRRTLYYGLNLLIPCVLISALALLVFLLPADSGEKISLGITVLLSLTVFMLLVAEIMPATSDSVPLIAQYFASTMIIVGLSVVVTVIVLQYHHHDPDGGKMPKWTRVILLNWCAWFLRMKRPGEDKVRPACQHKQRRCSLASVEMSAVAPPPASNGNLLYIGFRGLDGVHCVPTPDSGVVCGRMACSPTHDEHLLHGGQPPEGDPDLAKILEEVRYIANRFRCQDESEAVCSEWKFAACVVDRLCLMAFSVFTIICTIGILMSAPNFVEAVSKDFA
In short: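 Fluo-4AM-loaded (2 µM) cells expressing human α7-wt nAChR in HEPES-HBSS with 5 mM CaCl2. Compounds (0.01–30 µM) were added, possibly 10 min before, with choline 100 µM, and peak fluorescence was monitored by FDSS. Potentiation was relative to the choline response, set as 100%; EC50 came from sigmoidal curves.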

human alpha 7-wt nAChR [2] = biological target: T1, human alpha 7-wt nAChR; assay: Patch-clamp current recording (whole-cell voltage-clamp, GH4C1 cells); format: cell-based; design: key: Type 0 compounds minimally change the effect size of the current elicited by 1 mM choline.; Type 1 compounds enhance the effect size of the current elicited by 1 mM choline but minimally alter the kinetics of the receptor.; Type 2 compounds enhance the effect size of the current elicited by 1 mM choline while reducing the rate and/or the extent of desensitization.; Type 3 compounds enhance the effect size of the current elicited by 1 mM choline. When tested at higher concentrations up to 10 µM they completely inhibit desensitization; Type 4 compounds allow for an initial desensitization of the receptor followed by a re-opening of the receptor during agonist application; conditions: current elicited by 1 mM choline
Method: The compounds of the present invention are classified as type 1-4, based on qualitative kinetic properties, as determined by whole-cell voltage-clamp recordings. This classification is based on the effect of an alpha 7 PAM compound, as described hereinbefore, on the signal elicited by an agonist application. In particular, said agonist is choline at a concentration of 1mM. In a preferred experimental setting, said alpha 7 PAM compound and choline are simultaneously applied to the cell, as described hereinafter. Desensitization is defined as the closure of the receptor upon activation during the application of the agonist in whole-cell voltage-clamp electrophysiology measurements seen as the reduction of the […] current after initial activation by the agonist.
The definition of the PAM types 1-4 is described hereinafter: Type 0 compounds minimally change the effect size of the current elicited by 1 mM choline. Type 1 compounds enhance the effect size of the current elicited by 1 mM choline but minimally alter the kinetics of the receptor. In particular, the rate and the extent of desensitization and of deactivation of the receptor elicited by the agonist is not affected. The compound-modulated response to 1 mM choline, therefore, is close to a linear scaling of the 1 mM choline response in absence of the alpha 7 PAM compound: Type 2 compounds enhance the effect size of the current elicited by 1 mM choline while reducing the rate and/or the extent of desensitization. Deactivation of the receptor is generally unaffected. Type 3 compounds enhance the effect size of the current elicited by 1 mM choline. […] Deactivation of the receptor may be slowed down. Type 4 compounds allow for an initial desensitization of the receptor followed by a re-opening of the receptor during agonist application. At low-potency concentrations of the alpha 7 PAM compound, the agonist-induced activation, which is followed by desensitization, can still be separated from the compound-induced re-opening as an initial inward current-maximum. At higher potency concentrations of the alpha 7 PAM compound, the re-opening occurs faster than the closure due to desensitization so that the initial current-maximum disappears.
A compound was considered to have interesting PAM-like activity when the potentiation of the peak current was at least 200% compared to the control choline response (= 100%). Such compounds are classified as belonging to a particular PAM type in the Experimental Part. Compounds not meeting the condition are not classified as belonging to a particular PAM-type.
The compounds also have a potentiating effect on the response to choline when measured by whole-cell patch clamp electrophysiology in GH4C1 cells stably over-expressing the human wild-type alpha 7 receptor.
Example D.2 : Patch-clamp current recording
Patch-clamp recording from mammalian cells has provided a powerful means of assessing the function of membrane-bound proteins thought to be subunits of ligand-gated ion channels. Activation of such proteins by endogenous or exogenous ligands cause opening of a pore associated with the receptor through which ions flow down their electrochemical gradient. In the case of the human alpha 7-wt nAChR-expressing GH4C1 recombinant cell line the preferential permeability to calcium of this receptor means that calcium flows into the cell upon activation by ACh, choline and other nicotinic ligands giving rise to a calcium current. Since this receptor rapidly desensitizes in the presence of agonist it is important that an application system is used which is capable of very rapid switching of solutions (< 100 ms) to prevent partial or full desensitisation of receptor responses coincident with the time of agonist application. Consequently, a second convenient technique to assess the enhancement of nicotinic efficacy is a patch-clamp recording from human alpha 7-wt nAChR-expressing GH4C1 cells coupled with a rapid-application system. […]

Question: Which results are given for Cc1cc(-c2c(F)cc(N3C[C@@H](C)O[C@@H](C)C3)c(F)c2CNC(=O)c2cc(C)on2)cc(C)n1 [Compound 123]?
Answer: EC50 (human alpha 7-wt nAChR [1]; Ca2+ assay as described in D.1): 631 nM; PAM type (human alpha 7-wt nAChR [2]): 0

Question: What does the source list for Cc1cc(-c2c(F)cc(N3C[C@@H](C)O[C@@H](C)C3)c(F)c2CNC(=O)CC2CC2)cc(C)n1 [Compound 124]?
Answer: EC50 (human alpha 7-wt nAChR [1]; Ca2+ assay as described in D.1): 347 nM; PAM type (human alpha 7-wt nAChR [2]): 2

Question: Which EC50 (human alpha 7-wt nAChR [1]; Ca2+ assay as described in D.1) does the source give for Cc1cc(-c2cc(F)c(N3C[C@@H](C)O[C@@H](C)C3)cc2CNC(=O)CC2CC2)cc(C)n1 [Compound 125] here?
Answer: 263 nM

Question: What about the Emax (human alpha 7-wt nAChR [1]) of the same compound?
Answer: 451%

Question: And the PAM type (human alpha 7-wt nAChR [2])?
Answer: 2

Question: What does the source list for Cc1cc(-c2cc(F)c(N3C[C@@H](C)O[C@@H](C)C3)cc2CNC(=O)C2CC2)cc(C)n1 [Compound 126]?
Answer: EC50 (human alpha 7-wt nAChR [1]; Ca2+ assay as described in D.1): 575 nM; Emax (human alpha 7-wt nAChR [1]): 352%; PAM type (human alpha 7-wt nAChR [2]): 2

Question: With Cc1cc(-c2cc(F)c(N3C[C@@H](C)O[C@@H](C)C3)cc2CNC(=O)c2cc(C)on2)cc(C)n1 [Compound 127] as the compound, how does the EC50 (human alpha 7-wt nAChR [1]; Ca2+ assay as described in D.1) read?
Answer: 550 nM

Question: What about the Emax (human alpha 7-wt nAChR [1]) of the same compound?
Answer: 554%

Question: What about the PAM type (human alpha 7-wt nAChR [2]) of the same compound?
Answer: 1

Question: Which EC50 (human alpha 7-wt nAChR [1]; Ca2+ assay as described in D.1) does the source give for Cc1cc(-c2cc(F)c(N3C[C@@H](C)O[C@@H](C)C3)cc2CNC(=O)C(C)C)cc(C)n1 [Compound 128] here?
Answer: 295 nM

Question: What about the Emax (human alpha 7-wt nAChR [1]) of the same compound?
Answer: 329%

Question: What about the PAM type (human alpha 7-wt nAChR [2]) of the same compound?
Answer: 2

Question: What does the source list for Cc1cc(-c2ccc(N3CC4CCC(C3)O4)cc2CNC(=O)C2CC2)cc(C)n1 [Compound 131]?
Answer: EC50 (human alpha 7-wt nAChR [1]; Ca2+ assay as described in D.1): 631 nM; Emax (human alpha 7-wt nAChR [1]): 269%; PAM type (human alpha 7-wt nAChR [2]): 2

Question: How did the EC50 (human alpha 7-wt nAChR [1]; Ca2+ assay as described in D.1) turn out when Cc1cc(-c2ccc(N3C[C@@H](C)O[C@@H](C)C3)c(CNC(=O)CC3CC3)c2)cc(C)n1 [Compound 132] was run?
Answer: 60.3 nM

Question: And the PAM type (human alpha 7-wt nAChR [2])?
Answer: 4

Question: How did the EC50 (human alpha 7-wt nAChR [1]; Ca2+ assay as described in D.1) turn out when Cc1cc(-c2ccc(N3C[C@@H](C)O[C@@H](C)C3)c(CNC(=O)c3cc(C)on3)c2)cc(C)n1 [Compound 133] was run?
Answer: 50.1 nM

Question: And the PAM type (human alpha 7-wt nAChR [2])?
Answer: 0

Question: Which EC50 (human alpha 7-wt nAChR [1]; Ca2+ assay as described in D.1) does the source give for Cc1cc(-c2ccc(N3C[C@@H](C)O[C@@H](C)C3)c(CNC(=O)C(C)C)c2)cc(C)n1 [Compound 134] here?
Answer: 91.2 nM

Question: And the PAM type (human alpha 7-wt nAChR [2])?
Answer: 3

Question: Which results are given for Cc1cc(-c2ccc(N3C[C@@H](C)O[C@@H](C)C3)c(CNC(=O)c3conc3C)c2)cc(C)n1 [Compound 136]?
Answer: EC50 (human alpha 7-wt nAChR [1]; Ca2+ assay as described in D.1): 129 nM; PAM type (human alpha 7-wt nAChR [2]): 3

Question: CC(C)C(=O)NCc1cc(N2CCOCC2)ccc1-c1ccncc1 [Compound 137] was tested. Which Emax (human alpha 7-wt nAChR [1]; Ca2+ assay as described in D.1) did it give?
Answer: 528%

Question: And the PAM type (human alpha 7-wt nAChR [2])?
Answer: 0
